Assays:
p2PTC−/− cells = conditions: even at the highest doses used, 2 d
Description: (§1) Relative reporter activity is normalized to maximum. […] Error bars in A and B indicate one standard deviation.

activated Smo (SmoA1) = assay: Gli-luciferase reporter activity in cells expressing activated Smo (SmoA1-LIGHT); format: cell-based, mouse
Description: FIG. 2 relates to a sensitive assay for Shh signaling in NIH-3T3 cells. (A) Purification of cholesterol- and palmitate-modified mouse Sonic hedgehog signaling domain ShhNp. Detergent-insoluble proteolipid complexes were isolated from 293 cells expressing full-length Shh (M. K. Cooper, J. A. Porter, K. E. Young, P. A. Beachy, Science 280, 1603 (1998)), and ShhNp was purified to apparent homogeneity by immunoaffinity chromatography. […] We therefore used the detergent insolubility of cholesterol-modified ShhN and affinity chromatography to purify the processed ShhN protein (ShhNp) from a human 293 cell line engineered to express the full length mouse Shh construct. Detergent-insoluble complexes (DIGs) were isolated as described by Brown and Rose (1992), with the following modifications. Cells from a 150 mm dish were lysed and collected in 2 mL of lysis solution (10 mM NaHPO4, pH 6.5, 150 mM NaCl, 0.5 mM PMSF, 1% Triton X-100, 2 μg/ml Pepstatin A, 10 μg/ml leupeptin, 5 μg/ml aprotinin, 2 μg/ml E64) at 4° C. […] Fold induction of the reporter (% of maximum is relative to equally dense Shh-LIGHT control culture) and cell densities (% of maximum Renilla luciferase activity) were measured at the end of the experiment. […]

Sonic hedgehog signaling = assay: Clonal NIH-3T3 line with stably integrated Shh-responsive luciferase reporter (Shh-LIGHT/Shh-LIGHT2), inhibition of Sonic hedgehog induction; format: cell-based, mouse
Description: FIG. 2 relates to a sensitive assay for Shh signaling in NIH-3T3 cells. (A) Purification of cholesterol- and palmitate-modified mouse Sonic hedgehog signaling domain ShhNp. Detergent-insoluble proteolipid complexes were isolated from 293 cells expressing full-length Shh (M. K. Cooper, J. A. Porter, K. E. Young, P. A. Beachy, Science 280, 1603 (1998)), and ShhNp was purified to apparent homogeneity by immunoaffinity chromatography. […] We therefore used the detergent insolubility of cholesterol-modified ShhN and affinity chromatography to purify the processed ShhN protein (ShhNp) from a human 293 cell line engineered to express the full length mouse Shh construct. Detergent-insoluble complexes (DIGs) were isolated as described by Brown and Rose (1992), with the following modifications. Cells from a 150 mm dish were lysed and collected in 2 mL of lysis solution (10 mM NaHPO4, pH 6.5, 150 mM NaCl, 0.5 mM PMSF, 1% Triton X-100, 2 μg/ml Pepstatin A, 10 μg/ml leupeptin, 5 μg/ml aprotinin, 2 μg/ml E64) at 4° C. […] Low-density, flocculent material was collected (from original position of 18.125% step), diluted 5-fold in 10 mM NaHPO4, pH 6.5, 150 mM NaCl and harvested by centrifugation at 20,000×g for 15 min (all at 4° C.). […] Mass standards migrated as indicated. […] NIH-3T3 cells cotransfected with Gli-luc reporter and TK promoter-driven Renilla luciferase control were treated with the indicated concentrations of ShhNp for 2 days. Confluent cultures of NIH-3T3 cells were plated at 1:6 dilution to 24 or 96-well plates. On the following day, the cells were transfected with renilla luciferase (pRL-TK or pRL-SV40; Clontech) or β-galactosidase transfection control (10% w/w DNA), Gli-Luc reporter (40%) and the constructs indicated (50%) using Fugene 6 (Roche) transfection reagent (250 ng (24 well plate) or 100 ng (96 well plate) DNA/well, 3:1 ratio (v/w) of reagent to DNA). […] Firefly and Renilla luciferase and β-galactosidase activities were assayed from the cell lysates by luminometry using dual luciferase (Promega) and Galacto-Light (Tropix) kits, respectively. Luciferase activities are normalized relative to control; a representative experiment is shown. […] Error bars indicate one standard deviation. […] Cultures of Shh-LIGHT (open boxes) or SmoA1-LIGHT (filled diamonds) cells were plated to 96-well plates in a series of twofold dilutions. The NIH-3T3 cell clone Shh-LIGHT and Shh-LIGHT2 stably incorporating the Gli-luc reporter and TK-renilla vectors were established by cotransfection with a vector encoding G418 resistance (pSV-Neo), followed by selection with G418 and cell cloning. Subsequently, a clonal subline of Shh-LIGHT expressing activated Smo (SmoA1-LIGHT) was established using an expression vector that allows hygromycin selection (pcDNA3.1+ hygro; Invitrogen). […] The Shh-LIGHT cells were treated with 4 nM ShhNp, and Gli-luciferase reporter activity was assayed after 24 h. Fold induction of the reporter (% of maximum is relative to equally dense Shh-LIGHT control culture) and cell densities (% of maximum Renilla luciferase activity) were measured at the end of the experiment. Error bars indicate one standard deviation (quadruplicate wells).
as §1

[1] = system: P2A6 fibrosarcoma cells derived from Ptc−/− embryonic fibroblasts; assay: Subcutaneous P2A6 fibrosarcoma tumors in female nude mice; format: in vivo, mouse; conditions: for differentiation status of tumors: compared with the tomatidine-treated control, FIG. 7; for Ki-67 proliferation rate: tumors after four days of treatment, blinded pathologist
Method: Female nude mice were injected subcutaneously with 5 million P2A6 fibrosarcoma cells derived from Ptc−/− embryonic fibroblasts. Three weeks after injection, each mouse had developed a discrete subcutaneous tumor. Each tumor was measured and treatments were initiated on the same day. […] The mice were killed, and tumors were measured and dissected out for histopathologic analysis. Tumor volumes were calculated as the product of length x width. The samples were paraformaldehyde-fixed and paraffin-embedded, and slides were cut for hematoxylin and eosin staining and for immunohistochemistry with polyclonal antibodies against the proliferation marker Ki-67 (Novacastra NCL-Ki67p; assay performed according to manufacturer's directions).

[2] = system: Shh pathway activity in Ptc1−/− cells
Description: Since β-galactosidase is expressed from the Ptc1 locus, its expression reflects the activity of the Shh pathway. A representative experiment is shown. […] Cultures of NIH-3T3 cells were transfected (in triplicate) with Gli-luciferase reporter, TK-Renilla luciferase control vector and Smo or SmoA1 expression vectors. Smo DNA was used at 50% w/w, and SmoA1 at 50%, 5%, and 0.5% w/w. […] Error bars indicate one standard deviation. The leftmost four bars, shown for comparison, are as in FIG. 2C. […] NIH-3T3 cells were transfected with Gli-luc reporter, TK-Renilla, Ptc1CTD and SmoA1 expression vectors (Ptc to Smo DNA ratio=9). […] A representative experiment is shown. […] NIH-3T3 cells were cotransfected with Gli-luc reporter, β-galactosidase transfection control, and a control vector or an expression vector encoding the indicated Smo-Renilla luciferase fusion protein. In the representative experiment shown, Shh pathway activity and Smo protein levels were measured as firefly and Renilla luciferase activities relative to β-galactosidase, respectively.
as §1
Mice lacking function of Ptc1 display widespread activation of targets of Shh signaling, including of the Ptc1 gene itself (L. V. Goodrich, L. Milenkovic, K. M. Higgins, M. P. Scott, Science 277, 1109 (1997)). As β-galactosidase is expressed under the control of the Ptc1 promoter in these cells, β-galactosidase expression can be used to assay the state of Shh pathway activity (FIG. 3A).

NIH-3T3 cells = conditions: data not shown
Hedgehog signaling = Hedgehog signaling assay in Drosophila c1-8 cells; format: cell-based; conditions: not shown
Description: Cellular responses to the Hh signal are controlled by two multi-pass transmembrane proteins, Smo and Ptc1, predicted to have seven and twelve transmembrane spans, respectively. Smo is related to the Frizzled family of Wnt receptors and more distantly to the secretin family of G protein-coupled receptors (M. R. Barnes, D. M. Duckworth, L. J. Beeley, Trends Pharmacol Sci 19, 399 (1998)).

Shh pathway = assay: Gli-luciferase reporter assay for Shh signaling in transiently transfected NIH-3T3 cells; format: cell-based, mouse; conditions: ShhNp-treated NIH-3T3 cells (FIG. 2C: ShhNp 4 nM, cyclopamine 5 μM, 2 d)
[3] = nude mice, once daily intraperitoneal, four days, one mouse per treatment

3-keto, N-aminoethyl aminocaproyl dihydrocinnamoyl cyclopamine [KAAD cyclopamine]
Significant toxicity (microscopically visible cell death, or decrease in Cell Titer reading) (p2PTC−/− cells): not observed | blocking of pathway activation by tumor-derived / constitutively activated Smo (activated Smo (SmoA1)): can block | concentration suppressing SmoA1-induced reporter activity relative to that required for suppression of ShhNp signaling (activated Smo (SmoA1); higher, FIG. 4A): approximately 10 fold | potency in suppression of ShhNp-induced pathway activity relative to cyclopamine (Sonic hedgehog signaling): 10-20 fold | differentiation status of tumors [1]: greater degree of differentiation | decrease of tumor size [1, 3]: 19% | Ki-67 proliferation rate [1]: 12% | blocking/suppression of pathway activity in cells lacking Ptc1 function [2]: can block | potency relative to cyclopamine in p2PTC−/− cells ([2]; FIG. 4B, 2 d): higher potency | minimum normalized β-galactosidase activity ([2]; p2PTC−/− cells, 2 d, normalized to cell mass, set to 0): 191 | Maximum normalized β-galactosidase activity ([2]; p2PTC−/− cells, 2 d, normalized to cell mass, set to 1): 1103

CC1=C2C[C@H]3[C@@H](CC=C4C[C@@H](O)CC[C@@]43C)[C@@H]2CC[C@]12O[C@@H]1C[C@H](C)CN[C@H]1[C@H]2C [Compound 1, cyclopamine]
concentration range in which toxic effects emerge (NIH-3T3 cells): 10 to 40 µM | Significant toxicity (microscopically visible cell death, or decrease in Cell Titer reading) (p2PTC−/− cells): not observed | differentiation status of tumors [1]: greater degree of differentiation | decrease of tumor size [1, 3]: 0.14% | Ki-67 proliferation rate [1]: 16% | sensitivity of Hedgehog signaling assay to the substance (Hedgehog signaling): resistant | β-galactosidase expression [2]: significantly suppressed

C[C@H]1CC[C@]2(NC1)O[C@H]1C[C@H]3[C@@H]4CC[C@H]5C[C@@H](O)CC[C@]5(C)[C@H]4CC[C@]3(C)[C@H]1[C@@H]2C [tomatidine]
tumor growth over the treatment period [1, 3]: 17% | Ki-67 proliferation rate [1]: 30%

forskolin
induction of reporter by ShhNp (Shh pathway): prevented induction

Source: US9440988B2, “Regulators of the hedgehog pathway, compositions and uses related thereto” (John Hopkins University School of Medicine, priority 1008, dated 2016)
